# Several values for one entry are separate records, joined by “and”; a condition that tells them apart may be missing. Identical values can stand only once. Counter-ions that a name gives are not always drawn.
row,SMILES,melting point
1,"O=C(O)c1ccc(-n2cc3c(n2)-c2cccc(OC(F)F)c2CC3)cc1 [Compound 186, 4-(6-Difluoromethoxy-4,5-dihydro-benzo[g]indazol-2-yl)-benzoic acid]",282 to 283 °C
2,"O=C(O)c1ccc(-n2cc(-c3ccc(C(F)(F)F)cc3)nn2)cc1 [Compound 202, 4-[4-(4-Trifluoromethyl-phenyl)-[1,2,3]triazol-1-yl]-benzoic acid]",305 to 306 °C
3,"O=C(O)c1cccc(-c2ncn(-c3cccc(F)c3)n2)c1 [Compound 29, 3-[1-(3-Fluoro-phenyl)-1H-[1,2,4]triazol-3-yl]-benzoic acid]",266 to 268 °C
4,"O=C(O)c1cccc(-c2ccn(-c3cccnc3)n2)c1 [Compound 260, 3-(1-Pyridin-3-yl-1H-pyrazol-3-yl)-benzoic acid]",235 to 236 °C
5,"O=C(O)c1cccc(-n2cc(-c3ccc(F)cc3F)cn2)c1 [Compound 103, 3-[4-(2,4-Difluoro-phenyl)-pyrazol-1-yl]-benzoic acid]",283 to 285 °C
6,"N#Cc1cccc(-c2ccn(-c3ccc(C(F)(F)F)cc3)n2)c1 [Compound 62, 3-[1-(4-Trifluoromethyl-phenyl)-1H-pyrazol-3-yl]-benzonitrile]",70 to 74 °C
7,"Cc1ccc(-c2cnn(-c3cccc(C(=O)O)c3)c2)cc1 [Compound 48, 3-(4-p-Tolyl-pyrazol-1-yl)-benzoic acid]",208 to 209 °C
8,"CC(C)c1ccc(-c2nn(-c3cccc(C(=O)O)c3)c(=O)s2)cc1 [Compound 284, 3-[5-(4-Isopropyl-phenyl)-2-oxo-[1,3,4]thiadiazol-3-yl]-benzoic acid]",220 to 221 °C
9,"CC(C)c1ccc(-n2cnc(-c3cccc(C(=O)O)c3)n2)cc1 [Compound 15, 3-[1-(4-Isopropyl-phenyl)-1H-[1,2,4]triazol-3-yl]-benzoic acid]",173 to 175 °C
10,"CC(C)c1ccc(-n2ccc(-c3cccc(C(=O)O)c3)c2)cc1 [Compound 6, 3-[1-(4-Isopropyl-phenyl)-1H-pyrrol-3-yl]-benzoic acid]",210 to 215 °C
11,"COc1ccc(-c2cn(-c3ccc(C(=O)O)cc3)nn2)cc1OC [Compound 272, 4-[4-(3,4-Dimethoxy-phenyl)-[1,2,3]triazol-1-yl]-benzoic acid]",253 to 254 °C
12,"COc1ccc2c(c1)CCc1cn(-c3ccc(C(=O)O)cc3)nc1-2 [Compound 163, 4-(7-Methoxy-4,5-dihydro-benzo[g]indazol-2-yl)-benzoic acid]",279 to 280 °C
13,"O=C(O)c1cccc(-c2ncn(-c3ccc(-c4ccccc4)cc3)n2)c1 [Compound 24, 3-(1-Biphenyl-4-yl-1H-[1,2,4]triazol-3-yl)-benzoic acid]",263 to 265 °C
14,"COc1cccc(-c2cn(-c3ccc(C(=O)O)cc3)nn2)c1 [Compound 204, 4-[4-(3-Methoxyphenyl)-[1,2,3]triazol-1-yl]benzoic acid]",276 to 277 °C
15,COc1ccccc1-n1ccc(-c2ccc(C(=O)O)cc2)c1 [Compound 193],200 to 202 °C
16,"Cc1cccc(-n2ccc(-c3ccc(C(=O)O)cc3)c2)c1 [Compound 194, 4-(1-m-Tolyl-1H-pyrrol-3-yl)-benzoic acid]",212 to 213 °C
17,"Cc1cccc(-c2cnn(-c3cccc(C(=O)O)c3)c2)c1 [Compound 90, 3-(4-m-Tolyl-pyrazol-1-yl)-benzoic acid]",181 to 182 °C
18,"O=C(O)c1cccc(-n2ccc(-c3ccc(N4CCOCC4)cc3)n2)c1 [Compound 82, 3-[3-(4-Morpholin-4-yl-phenyl)-pyrazol-1-yl]-benzoic acid]",230 to 235 °C
19,"O=C(O)c1cccc(-c2ccn(-c3ccc4c(c3)OCO4)c2)c1 [Compound 247, 3-(1-Benzo[1,3]dioxol-5-yl-1H-pyrrol-3-yl)-benzoic acid]",177 to 180 °C
20,CC(C)c1ccc(-c2nn(-c3cccc(C(=O)O)c3)c(=O)o2)cc1 [Compound 279],218 to 220 °C
21,"O=C(O)c1cccc(-c2ncn(-c3ccccc3F)n2)c1 [Compound 17, 3-[1-(2-Fluoro-phenyl)-1H-[1,2,4]triazol-3-yl]-benzoic acid]",239 to 241 °C
22,"O=C(O)c1cccc(-c2ccn(-c3cccc(Br)c3)n2)c1 [Compound 165, 3-[1-(3-Bromo-phenyl)-1H-pyrazol-3-yl]-benzoic acid]",180 to 183 °C
23,"O=C(O)c1cccc(-n2ncc3c2Cc2ccccc2-3)c1 [Compound 136, 3-(8H-Indeno[2,1-c]pyrazol-1-yl)-benzoic acid]",241 to 243 °C
24,"Cc1nc(-c2cccc(C(=O)O)c2)nn1-c1cccc(F)c1 [Compound 34, 3-[1-(3-Fluoro-phenyl)-5-methyl-1H-[1,2,4]triazol-3-yl]-benzoic acid]",236 to 238 °C
25,"O=C(O)c1ccc(-c2cnn(-c3cccc(OC(F)(F)F)c3)c2)cc1 [Compound 224, 4-[1-(3-Trifluoromethoxy-phenyl)-1H-pyrazol-4-yl]-benzoic acid]",230 to 231 °C

row,SMILES,melting point
1,"O=C(O)c1cccc(-c2ncn(-c3ccc(F)cc3F)n2)c1 [Compound 16, 3-[1-(2,4-Difluoro-phenyl)-1H-[1,2,4]triazol-3-yl]-benzoic acid]",290 to 291 °C and 290 to 292 °C
2,"Cc1ccc(-c2cnn(-c3ccc(C(=O)O)cc3)c2)cc1 [Compound 51, 4-(4-p-Tolyl-pyrazol-1-yl)-benzoic acid]",298 to 299 °C
3,"O=C(O)c1ccc(-n2cc(-c3cccc(Cl)c3)cn2)cc1 [Compound 211, 4-[4-(3-Chloro-phenyl)-pyrazol-1-yl]-benzoic acid]",252 to 255 °C
4,"O=C(O)c1ccc(-n2cc(-c3ccc(F)cc3)nn2)cc1 [Compound 266, 4-[4-(4-Fluoro-phenyl)-[1,2,3]triazol-1-yl]-benzoic acid]",321 to 323 °C
5,"CC(C)c1ccc(-c2nn(-c3ccc(C(=O)O)cc3)c(=O)o2)cc1 [Compound 277, 4-[5-(4-Isopropyl-phenyl)-2-oxo-[1,3,4]oxadiazol-3-yl]-benzoic acid]",252 to 254 °C
6,"Cc1ccccc1-n1cnc(-c2cccc(C(=O)O)c2)n1 [Compound 40, 3-(1-o-Tolyl-1H-[1,2,4]triazol-3-yl)-benzoic acid]",209 to 211 °C
7,"O=C(O)c1cccc(-c2ccn(-c3ccc(F)cc3)n2)c1 [Compound 96, 3-[1-(4-Fluoro-phenyl)-1H-pyrazol-3-yl]-benzoic acid]",245 to 246 °C
8,"COc1cccc2c1CCc1cn(-c3ccc(C(=O)O)cc3)nc1-2 [Compound 148, 4-(6-Methoxy-4,5-dihydro-benzo[g]indazol-2-yl)-benzoic acid]",288 to 290 °C
9,"O=C(O)c1cccc(-c2ccn(-c3ccc(C(F)(F)F)cc3)c2)c1 (as salt: sodium) [Compound 154, 3-[1-(4-Trifluoromethyl-phenyl)-]-1H-pyrrol-3-yl]-benzoic acid sodium salt]",224 to 226 °C
10,"O=C(O)c1cccc(-n2cnc(-c3ccc(OCc4ccccc4)cc3)n2)c1 [Compound 10, 3-[3-(4-Benzyloxy-phenyl)-[1,2,4]triazol-1-yl]-benzoic acid]",259 to 261 °C
11,"O=C(O)c1cccc(-n2cnc(-c3ccccc3)c2)c1 [Compound 262, 3-(4-Phenyl-imidazol-1-yl)-benzoic acid]",277 to 279 °C
12,"Cc1ccc(-c2ccn(-c3cccc(C(=O)O)c3)n2)cc1 [Compound 170, 3-(3-p-Tolyl-pyrazol-1-yl)-benzoic acid]",180 to 182 °C
13,"COc1ccc(-c2ccn(-c3cccc(C(=O)O)c3)n2)cc1 [Compound 81, 3-[3-(4-Methoxy-phenyl)-pyrazol-1-yl]-benzoic acid]",210 to 211 °C
14,"O=C(O)c1cccc(-c2ccn(-c3ccc(OC(F)F)cc3)n2)c1 [Compound 124, 3-[1-(4-Difluoromethoxy-phenyl)-1H-pyrazol-3-yl]-benzoic acid]",182 to 183 °C
15,"COc1cccc(-c2cnn(-c3cccc(C(=O)O)c3)c2)c1 [Compound 112, 3-[4-(3-Methoxy-phenyl)-pyrazol-1-yl]-benzoic acid]",157 to 158 °C
16,"CC(C)c1ccc(-c2cn(-c3ccc(C(=O)O)cc3)nn2)cc1 [Compound 275, 4-[4-(4-Isopropyl-phenyl)-[1,2,3]triazol-1-yl]-benzoic acid]",311 to 312 °C
17,"O=C(O)c1cccc(-c2ncn(-c3ccc(-c4ccc(F)cc4)cc3)n2)c1 [Compound 32, 3-[1-(4′-Fluoro-biphenyl-4-yl)-1H-[1,2,4]triazol-3-yl]-benzoic acid]",272 to 275 °C
18,O=C(O)c1ccc(-n2cc3c(n2)-c2ccccc2OC3)cc1 [Compound 162],308 to 310 °C
19,"N#Cc1cccc(-c2ccn(-c3cccc(C(=O)O)c3)n2)c1 [Compound 78, 3-[3-(3-Cyano-phenyl)-pyrazol-1-yl]-benzoic acid]",164 to 166 °C
20,"O=C(O)c1cccc(-n2cc(-c3cccc(F)c3)cn2)c1 [Compound 213, 3-[4-(3-Fluoro-phenyl)-pyrazol-1-yl]-benzoic acid]",228 to 230 °C
21,"CCc1ccccc1-n1cnc(-c2cccc(C(=O)O)c2)n1 [Compound 21, 3-[1-(2-Ethyl-phenyl)-1H-[1,2,4]triazol-3-yl]-benzoic acid]",176 to 178 °C
22,"O=C(O)c1cccc(-c2ccn(-c3cccc(O)c3)n2)c1 [Compound 75, 3-[1-(3-Hydroxy-phenyl)-1H-pyrazol-3-yl]-benzoic acid]",178 to 190 °C and 178 to 179 °C
23,"O=C(O)c1cccc(-n2cc(-c3ccc(OC(F)F)cc3)cn2)c1 [Compound 107, 3-[4-(4-Difluoromethoxy-phenyl)-pyrazol-1-yl]-benzoic acid]",118 to 120 °C
24,"O=C(O)c1cccc(-c2cnn(-c3cccc(OC(F)(F)F)c3)c2)c1 [Compound 223, 3-[1-(3-Trifluoromethoxy-phenyl)-1H-pyrazol-4-yl]-benzoic acid]",143 to 145 °C
25,"Cc1ccc(-n2ccc(-c3cccc(C(=O)O)c3)n2)cc1 [Compound 166, 3-(1-p-Tolyl-1H-pyrazol-3-yl)-benzoic acid]",192 to 193 °C
